# Measurements reported in PubChem BioAssay (NCI).
#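 Exposure lasted 48 hours, with cells grown in 96-well plates and compounds tested at five concentrations. TGI denotes the concentration required for complete inhibition of growth.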
# Tests used:
# Experiment in all cases: NCI anticancer screen, dose series, 48 h
# [1] = test system: MCF7 breast
# [2] = test system: NCI-H460 lung
# [3] = test system: 786-0 renal
# [4] = test system: RPMI-8226 leukemia
# [5] = test system: MDA-MB-435
# [6] = test system: DU-145 prostate
# [7] = test system: CAKI-1 renal
# [8] = test system: SF-268 CNS
# [9] = test system: SK-OV-3 ovarian
# [10] = test system: KM12 colon
# [11] = test system: HCC-2998 colon
# [12] = test system: NCI-H23 lung
# [13] = test system: OVCAR-5 ovarian
# [14] = test system: BT-549 breast
# [15] = test system: MDA-N
# [16] = test system: SNB-19 CNS
# [17] = test system: OVCAR-3 ovarian
# [18] = test system: SN12C renal
# [19] = test system: T-47D breast
# [20] = test system: OVCAR-8 ovarian
# [21] = test system: COLO 205 colon
# [22] = test system: UACC-257 melanoma
# [23] = test system: SK-MEL-2 melanoma
# [24] = test system: M14 melanoma
# [25] = test system: ACHN renal
# [26] = test system: EKVX NSCLC
# [27] = test system: MOLT-4 leukemia
# [28] = test system: RXF 393 renal
# [29] = test system: LOX IMVI melanoma
# [30] = test system: NCI-H522 lung
# [31] = test system: A549 NSCLC
# [32] = test system: U251 CNS
# [33] = test system: SF-295 CNS
# [34] = test system: MDA-MB-231 breast
# [35] = test system: SNB-75 CNS
# [36] = test system: MALME-3M melanoma
# [37] = test system: HOP-92 NSCLC
# [38] = test system: HCT-15 colon
# [39] = test system: HS 578T breast
# [40] = test system: HOP-62 NSCLC
# [41] = test system: UO-31 renal
# [42] = test system: SK-MEL-5 melanoma
# [43] = test system: HL-60(TB) leukemia
# [44] = test system: A498 renal
# [45] = test system: NCI/ADR-RES ovarian
# [46] = test system: K-562 leukemia
# [47] = test system: OVCAR-4 ovarian
# [48] = test system: HCT-116 colon
# [49] = test system: HT29 colon
# [50] = test system: IGROV1 ovarian
# [51] = test system: UACC-62 melanoma
# [52] = test system: SW-620 colon
# [53] = test system: NCI-H226 lung
# [54] = test system: TK-10 renal
# [55] = test system: SK-MEL-28 melanoma
# [56] = test system: PC-3 prostate
# [57] = test system: CCRF-CEM leukemia
# [58] = test system: SF-539 CNS
# [59] = test system: SR leukemia
structure (smiles),measurement,setting,value
CN1CCCCC1CCN1CCCCC1 (stereo unspecified),TGI,[1],> 100 µM
same,TGI,[2],> 100 µM
same,TGI,[3],> 100 µM
same,TGI,[4],> 100 µM
same,TGI,[5],> 100 µM
same,TGI,[6],> 100 µM
same,TGI,[7],> 100 µM
same,TGI,[8],> 100 µM
same,TGI,[9],> 100 µM
same,TGI,[10],> 100 µM
same,TGI,[11],> 100 µM
same,TGI,[12],> 100 µM
same,TGI,[13],> 100 µM
same,TGI,[14],> 100 µM
same,TGI,[15],> 100 µM
same,TGI,[16],> 100 µM
same,TGI,[17],> 100 µM
same,TGI,[18],> 100 µM
same,TGI,[19],> 100 µM
same,TGI,[20],> 100 µM
same,TGI,[21],> 100 µM
same,TGI,[22],> 100 µM
same,TGI,[23],> 100 µM
same,TGI,[24],> 100 µM
same,TGI,[25],> 100 µM
same,TGI,[26],> 100 µM
same,TGI,[27],> 100 µM
same,TGI,[28],> 100 µM
same,TGI,[29],> 100 µM
same,TGI,[30],> 100 µM
same,TGI,[31],> 100 µM
same,TGI,[32],> 100 µM
same,TGI,[33],> 100 µM
same,TGI,[34],> 100 µM
same,TGI,[35],> 100 µM
same,TGI,[36],> 100 µM
same,TGI,[37],> 100 µM
same,TGI,[38],> 100 µM
same,TGI,[39],> 100 µM
same,TGI,[40],> 100 µM
same,TGI,[41],> 100 µM
same,TGI,[42],> 100 µM
same,TGI,[43],> 100 µM
same,TGI,[44],> 100 µM
same,TGI,[45],> 100 µM
same,TGI,[46],> 100 µM
same,TGI,[47],> 100 µM
same,TGI,[48],> 100 µM
same,TGI,[49],> 100 µM
same,TGI,[50],> 100 µM
same,TGI,[51],> 100 µM
same,TGI,[52],> 100 µM
same,TGI,[53],> 100 µM
same,TGI,[54],> 100 µM
same,TGI,[55],> 100 µM
same,TGI,[56],> 100 µM
O=C(Cn1c2c(c3ccccc31)CCCC2)NC1CCCCC1,TGI,[1],> 100 µM
same,TGI,[2],> 100 µM
same,TGI,[3],> 100 µM
same,TGI,[4],> 100 µM
same,TGI,[5],> 100 µM
same,TGI,[7],> 100 µM
same,TGI,[8],> 100 µM
same,TGI,[9],> 100 µM
same,TGI,[11],> 100 µM
same,TGI,[12],> 100 µM
same,TGI,[13],> 100 µM
same,TGI,[14],> 100 µM
same,TGI,[15],> 100 µM
same,TGI,[16],> 100 µM
same,TGI,[17],> 100 µM
same,TGI,[18],> 100 µM
same,TGI,[20],> 100 µM
same,TGI,[57],> 100 µM
same,TGI,[21],> 100 µM
same,TGI,[22],> 100 µM
same,TGI,[23],> 100 µM
same,TGI,[24],> 100 µM
same,TGI,[25],> 100 µM
same,TGI,[26],> 100 µM
same,TGI,[29],> 100 µM
same,TGI,[31],> 100 µM
same,TGI,[33],> 100 µM
same,TGI,[36],> 100 µM
same,TGI,[38],> 100 µM
same,TGI,[39],> 100 µM
same,TGI,[40],> 100 µM
same,TGI,[41],> 100 µM
same,TGI,[42],> 100 µM
same,TGI,[43],> 100 µM
same,TGI,[44],> 100 µM
same,TGI,[45],> 100 µM
same,TGI,[46],> 100 µM
same,TGI,[47],> 100 µM
same,TGI,[48],> 100 µM
same,TGI,[49],> 100 µM
same,TGI,[58],> 100 µM
same,TGI,[50],> 100 µM
same,TGI,[51],> 100 µM
same,TGI,[52],> 100 µM
same,TGI,[54],> 100 µM
same,TGI,[55],> 100 µM
same,TGI,[56],> 100 µM
NNC(=O)c1ccc(-n2nnc(C(=O)NN)c2C(=O)NN)cc1,TGI,[1],> 100 µM
same,TGI,[2],> 100 µM
same,TGI,[3],> 100 µM
same,TGI,[4],> 100 µM
same,TGI,[5],> 100 µM
same,TGI,[6],> 100 µM
same,TGI,[7],> 100 µM
same,TGI,[10],> 100 µM
same,TGI,[11],> 100 µM
same,TGI,[12],> 100 µM
same,TGI,[13],> 100 µM
same,TGI,[14],> 100 µM
same,TGI,[15],> 100 µM
same,TGI,[16],> 100 µM
same,TGI,[17],> 100 µM
same,TGI,[18],> 100 µM
same,TGI,[20],> 100 µM
same,TGI,[57],> 100 µM
same,TGI,[21],> 100 µM
same,TGI,[22],> 100 µM
same,TGI,[23],> 100 µM
same,TGI,[24],> 100 µM
same,TGI,[25],> 100 µM
same,TGI,[26],> 100 µM
same,TGI,[27],> 100 µM
same,TGI,[29],> 100 µM
same,TGI,[31],> 100 µM
same,TGI,[32],> 100 µM
same,TGI,[33],> 100 µM
same,TGI,[34],> 100 µM
same,TGI,[36],> 100 µM
same,TGI,[37],> 100 µM
same,TGI,[38],> 100 µM
same,TGI,[40],> 100 µM
same,TGI,[41],> 100 µM
same,TGI,[42],> 100 µM
same,TGI,[43],> 100 µM
same,TGI,[45],> 100 µM
same,TGI,[46],> 100 µM
same,TGI,[47],> 100 µM
same,TGI,[48],> 100 µM
same,TGI,[49],> 100 µM
same,TGI,[59],> 100 µM
same,TGI,[54],> 100 µM
same,TGI,[55],> 100 µM
same,TGI,[56],> 100 µM
COc1ccc(NC2Oc3cc4c(cc3C(c3cccc(OC)c3OC)C2C)OCO4)cc1 (stereo unspecified),TGI,[1],> 100 µM
same,TGI,[2],> 100 µM
same,TGI,[3],> 100 µM
same,TGI,[4],> 100 µM
same,TGI,[5],43.1 µM
same,TGI,[6],> 100 µM
same,TGI,[7],> 100 µM
same,TGI,[8],> 100 µM
same,TGI,[9],> 100 µM
same,TGI,[10],> 100 µM
same,TGI,[11],> 100 µM
same,TGI,[12],79.5 µM
same,TGI,[13],> 100 µM
same,TGI,[14],> 100 µM
same,TGI,[15],> 100 µM
same,TGI,[16],> 100 µM
same,TGI,[17],> 100 µM
same,TGI,[18],> 100 µM
same,TGI,[19],> 100 µM
same,TGI,[20],> 100 µM
same,TGI,[57],47.1 µM
same,TGI,[21],19.2 µM
same,TGI,[22],69.2 µM
same,TGI,[23],70.2 µM
same,TGI,[24],> 100 µM
same,TGI,[25],> 100 µM
same,TGI,[26],> 100 µM
same,TGI,[27],35.9 µM
same,TGI,[28],50.2 µM
same,TGI,[29],> 100 µM
same,TGI,[30],> 100 µM
same,TGI,[31],> 100 µM
same,TGI,[32],> 100 µM
same,TGI,[33],32.3 µM
same,TGI,[34],> 100 µM
same,TGI,[35],> 100 µM
same,TGI,[36],82.3 µM
same,TGI,[37],25.1 µM
same,TGI,[38],> 100 µM
same,TGI,[39],61.5 µM
same,TGI,[40],> 100 µM
same,TGI,[41],> 100 µM
same,TGI,[42],56 µM
same,TGI,[43],10.9 µM
same,TGI,[44],71.1 µM
same,TGI,[46],70.6 µM
same,TGI,[48],16.3 µM
same,TGI,[49],> 100 µM
same,TGI,[58],> 100 µM
same,TGI,[50],> 100 µM
same,TGI,[59],12 µM
same,TGI,[51],> 100 µM
same,TGI,[52],> 100 µM
same,TGI,[53],> 100 µM
same,TGI,[54],> 100 µM
same,TGI,[55],85.7 µM
same,TGI,[56],51.3 µM
